In patent US10098878B2, “HIF-2α inhibitors for treating iron overload disorders” (The Board of Regents of the University of Texas System, priority 2014, dated 2018):
Read-outs that look alike come from different tables or passages of the source.

Columns and labels:
786-O-Hif-Luc cells = assay: Luciferase Assay; format: cell-based; conditions: read-out: Luciferase EC50
Experimental: A pool of infected cells were then selected against 2 μg/mL of puromycin (P8833, Sigma) for 10 days followed by limited dilution to select single clones.
Each concentration was tested in triplicate. After about 24 hours, luciferase activity was determined using ONE-Glo Luciferase Assay Reagent (E6110, Promega) following the manufacturer's recommended procedure. EC50 were calculated by using Dotmatics software.

[1] = biological target: T1, HIF-2α HIS TAG-PASB Domain (Homo sapiens, UniProt Q99814); assay: HIF-2α Scintillation Proximity Assay (SPA); format: binding; conditions: 150 nM Compound 211 probe, 100 nM HIF-2α HIS TAG-PASB Domain; read-out: SPA IC50
T1 construct: 100 nM HIF-2α HIS TAG-PASB Domain
T1 sequence (Q99814 240-350 limits assumed): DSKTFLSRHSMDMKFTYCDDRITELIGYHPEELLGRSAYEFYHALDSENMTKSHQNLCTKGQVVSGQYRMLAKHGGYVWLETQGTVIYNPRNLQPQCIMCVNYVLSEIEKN
Experimental: The total assay volume was about 100 μL in the following configuration: 2 μL compound in 100% DMSO, 88 μL buffer with protein and probe and 10 μL of SPA beads. […] The percent inhibition was determined and IC50 values were calculated using the Dotmatics system based on the following equation: % inhibition=[(high control−sample)/(high control−low control)]×100.

[2] = 24 h, 786-O-Hif-Luc cells, about 24 hours

For `CS(=O)(=O)c1ccc(Oc2cc(F)cc(C#N)c2)c2c1[C@H](O)C(F)(F)C2` [Compound 5, (S)-3-((2,2-Difluoro-1-hydroxy-7-(methylsulfonyl)-2,3-dihydro-1H-inden-4-yl)oxy)-5-fluorobenzonitrile], the EC50 (786-O-Hif-Luc cells; 24 h) was 24 nM.

In the case of `N#Cc1cc(F)cc(Oc2ccc(S(=O)(=O)C(F)(F)F)c3c2C[C@@H](F)[C@H]3O)c1` [Compound 15, 3-Fluoro-5-(((1S,2R)-2-fluoro-1-hydroxy-7-((trifluoromethyl)sulfonyl)-2,3-dihydro-1H-inden-4-yl)oxy)benzonitrile], the EC50 (786-O-Hif-Luc cells; [2]) is reported as 3 nM.

For `O=S1(=O)CC(O)c2c1ccc(Oc1cc(F)cc(Cl)c1)c2Br` (stereo not shown) [Compound 116, 4-Bromo-5-(3-chloro-5-fluorophenoxy)-3-hydroxy-2,3-dihydrobenzo[b]thiophene 1,1-dioxide], the EC50 (786-O-Hif-Luc cells) was 4800 nM.

`N#Cc1cc(F)cc(Oc2ccc(S(N)(=O)=O)c3c2[C@H](F)C(F)(F)[C@H]3O)c1` [Compound 103, (1S,3S)-7-(3-cyano-5-fluoro-phenoxy)-1,2,2-trifluoro-3-hydroxy-indane-4-sulfonamide] gave an EC50 (786-O-Hif-Luc cells; 24 h) of 253 nM.

In the case of `CNS(=O)(=O)c1ccc(Oc2cc(F)cc(C#N)c2)c2c1[C@H](O)C(F)(F)C2` [Compound 26, (S)-7-(3-Cyano-5-fluorophenoxy)-2,2-difluoro-3-hydroxy-N-methyl-2,3-dihydro-1H-indene-4-sulfonamide], the EC50 (786-O-Hif-Luc cells; 24 h) is reported as 119 nM.

In the case of `N#Cc1cncc(Oc2ccc(S(=O)(=O)C(F)(F)F)c3c2CC(F)(F)[C@H]3O)c1` [Compound 18, (S)-5-((2,2-Difluoro-1-hydroxy-7-((trifluoromethyl)sulfonyl)-2,3-dihydro-1H-inden-4-yl)oxy)nicotinonitrile], the EC50 (786-O-Hif-Luc cells; 24 h) is reported as 15 nM.

`CS(=O)(=O)c1ccc(Oc2cc(F)cc(C#N)c2)c2c1[C@H](O)[C@@H](F)C2` [Compound 35, 3-fluoro-5-(((1S,2S)-2-fluoro-1-hydroxy-7-(methylsulfonyl)-2,3-dihydro-1H-inden-4-yl)oxy)benzonitrile] showed an EC50 (786-O-Hif-Luc cells; 24 h) of 473 nM.

`CS(=O)(=O)c1ccc(Oc2cc(F)cc(C#N)c2)c2c1[C@H](O)[C@H](F)C2` [Compound 17, 3-Fluoro-5-(((1S,2R)-2-fluoro-1-hydroxy-7-(methylsulfonyl)-2,3-dihydro-1H-inden-4-yl)oxy)benzonitrile] was tested, and the EC50 (786-O-Hif-Luc cells; 24 h) was 36 nM.

`O=[N+]([O-])c1ccc(Oc2cc(F)cc(Cl)c2)c2c1C(O)CC2` (stereo not shown) [Compound 27, 4-(3-Chloro-5-fluorophenoxy)-7-nitro-2,3-dihydro-1H-inden-1-ol] was tested, and the EC50 (786-O-Hif-Luc cells; [2]) was 1390 nM.

With `N#Cc1cc(F)cc(Oc2ccc3c(c2C(F)F)C(O)C(F)(F)S3(=O)=O)c1` (stereo not shown) [Compound 139, 3-((4-(Difluoromethyl)-2,2-difluoro-3-hydroxy-1,1-dioxido-2,3-dihydrobenzo[b]thiophen-5-yl)oxy)-5-fluorobenzonitrile] the EC50 (786-O-Hif-Luc cells; 786-O-Hif-Luc cells, about 24 hours) was 4 nM.

Molecule `CS(=O)(=O)c1ccc(Oc2cc(F)cc(C#N)c2)c2c1[C@H](N)C(F)(F)C2` [Compound 6, 3-[(1S)-1-Amino-2,2-difluoro-7-methylsulfonyl-indan-4-yl]oxy-5-fluoro-benzonitrile] has an EC50 (786-O-Hif-Luc cells; 24 h) of 244 nM.

`CS(=O)(=O)c1ccc(Oc2cc(F)cc(C#N)c2)c2c1[C@H](O)[C@H](F)[C@@H]2F` [Compound 53, 3-[(1S,2S,3R)-2,3-difluoro-1-hydroxy-7-methylsulfonyl-indan-4-yl]oxy-5-fluoro-benzonitrile] was tested, and the EC50 (786-O-Hif-Luc cells; [2]) was 4 nM.

`CS(=O)(=O)c1ccc(Oc2cc(F)cc(C#N)c2)c2c1[C@H](O)CC2` [Compound 51, 3-fluoro-5-[(1R)-1-hydroxy-7-methylsulfonyl-indan-4-yl]oxy-benzonitrile] was tested, and the EC50 (786-O-Hif-Luc cells; [2]) was 650 nM.

`[2H]C1(O)c2c(ccc(Oc3cc(F)cc(C#N)c3)c2C(F)F)S(=O)(=O)C1(F)F` (stereo not shown) [Compound 150, 3-((4-(Difluoromethyl)-2,2-difluoro-3-hydroxy-1,1-dioxido-2,3-dihydrobenzo[b]thiophen-5-yl-3-d)oxy)-5-fluorobenzonitrile] gave an EC50 (786-O-Hif-Luc cells) of 12 nM.

`N#Cc1cc(F)cc(Oc2ccc(S(N)(=O)=O)c3c2[C@@H](F)[C@@H](F)[C@H]3O)c1` [Compound 100, (1R,2S,3S)-7-(3-cyano-5-fluoro-phenoxy)-1,2-difluoro-3-hydroxy-indane-4-sulfonamide] was tested, and the EC50 (786-O-Hif-Luc cells; [2]) was 67 nM.

`O=S(=O)(c1ccc(Oc2ccc(F)c3[nH]ncc23)c2c1C(O)C(F)(F)C2)C(F)(F)F` (stereo not shown) [Compound 21, 2,2-Difluoro-4-((7-fluoro-1H-indazol-4-yl)oxy)-7-((trifluoromethyl)sulfonyl)-2,3-dihydro-1H-inden-1-ol] showed an EC50 (786-O-Hif-Luc cells; [2]) of 137 nM.

`O=S1(=O)c2ccc(Oc3cc(F)cc(F)c3)c(C(F)F)c2C(O)C1F` (stereo not shown) [Compound 133, 4-(difluoromethyl)-5-(3,5-difluorophenoxy)-2-fluoro-3-hydroxy-2,3-dihydrobenzo[b]thiophene 1,1-dioxide] was tested, and the EC50 (786-O-Hif-Luc cells; [2]) was 124 nM.

`[2H]C([2H])([2H])S(=O)(=O)c1ccc(Oc2cc(F)cc(C#N)c2)c2c1[C@]([2H])(O)C(F)(F)C2` [Compound 16, 3-[(1S)-1-Deuterio-2,2-difluoro-1-hydroxy-7-(trideuteriomethylsulfonyl)indan-4-yl]oxy-5-fluoro-benzonitrile] showed an EC50 (786-O-Hif-Luc cells; 24 h) of 24 nM.

With `CCOc1ccc2c(c1C(F)F)[C@@H](O)C(F)(F)S2(=O)=O` [Compound 202, (R)-4-(Difluoromethyl)-5-ethoxy-2,2-difluoro-3-hydroxy-2,3-dihydrobenzo[b]thiophene 1,1-dioxide] the IC50 [1] was 15500 nM.

Molecule `O=S1(=O)CCc2c1ccc(Oc1cc(F)cc(Cl)c1)c2Br` [Compound 114, 4-Bromo-5-(3-chloro-5-fluorophenoxy)-2,3-dihydrobenzo[b]thiophene 1,1-dioxide] has an IC50 [1] of 4400 nM.

`N#Cc1cc(F)cc(Oc2ccc(S(N)(=O)=O)c3c2[C@@H](O)C(F)(F)[C@H]3O)c1` [Compound 101, (1R,3S)-7-(3-cyano-5-fluoro-phenoxy)-2,2-difluoro-1,3-dihydroxy-indane-4-sulfonamide] showed an IC50 [1] of 3700 nM.

`CS(=O)(=NC#N)c1ccc(Oc2cc(F)cc(C#N)c2)c2c1[C@H](O)C(F)(F)[C@H]2F` (single isomer, unassigned) [Compound 82] was tested, and the IC50 [1] was 2400 nM.

For `N#CN=S(=O)(CF)c1ccc(Oc2cc(F)cc(C#N)c2)c2c1[C@H](O)CC2` (single isomer, unassigned) [Compound 47], the IC50 [1] was 1400 nM.

Work on `CS(=O)(=O)c1ccc(Oc2cncc(F)c2)c2c1[C@H](O)C(F)(F)[C@H]2F` [Compound 94, (1S,3S)-2,2,3-trifluoro-4-((5-fluoropyridin-3-yl)oxy)-7-(methylsulfonyl)-2,3-dihydro-1H-inden-1-ol] yielded an IC50 [1] of 2100 nM.

With `O=S1(=O)CC(O)c2c1ccc(Oc1cc(F)cc(F)c1)c2Br` (stereo not shown) [Compound 182, 4-Bromo-5-(3,5-difluorophenoxy)-3-hydroxy-2,3-dihydrobenzo[b]thiophene 1,1-dioxide] the IC50 [1] was 17100 nM.

`CC1(O)c2cc(Oc3cc(F)cc(F)c3)ccc2S(=O)(=O)C1(F)F` (stereo not shown) [Compound 189, 5-(3,5-Difluorophenoxy)-2,2-difluoro-3-hydroxy-3-methyl-2,3-dihydrobenzo[b]thiophene 1,1-dioxide] was tested, and the IC50 [1] was 6860 nM.

Molecule `N#Cc1cc(F)cc(Oc2ccc3c(c2C(F)F)[C@H](N)C(F)(F)S3(=O)=O)c1` [Compound 148, (S)-3-((3-Amino-4-(difluoromethyl)-2,2-difluoro-1,1-dioxido-2,3-dihydrobenzo[b]thiophen-5-yl)oxy)-5-fluorobenzonitrile] has an IC50 [1] of 13400 nM.

With `N=S1(=O)CC(O)c2c1ccc(Oc1cc(F)cc(F)c1)c2C(F)F` (stereo not shown) [Compound 160, 4-(Difluoromethyl)-5-(3,5-difluorophenoxy)-3-hydroxy-1-imino-2,3-dihydro-1H-1λ^4-benzo[b]thiophene 1-oxide] the IC50 [1] was 14200 nM.

`O=S1(=O)C[C@H](O)c2c1ccc(Oc1cccc(F)c1)c2Br` [Compound 183, (R)-4-bromo-5-(3-fluorophenoxy)-3-hydroxy-2,3-dihydrobenzo[b]thiophene 1,1-dioxide] gave an IC50 [1] of 13700 nM.

Molecule `N=S1(=O)c2ccc(Oc3cc(F)cc(F)c3)c(C(F)F)c2C(O)C1(F)F` (single isomer, unassigned) [Compound 163, 4-(difluoromethyl)-5-(3,5-difluorophenoxy)-2,2-difluoro-3-hydroxy-1-imino-2,3-dihydro-1H-1λ^4-benzo[b]thiophene 1-oxide] has an IC50 [1] of 59 nM.

In the case of `N#Cc1cc(F)cc(Oc2ccc3c(c2C(F)F)C(O)(C(F)(F)F)C(F)(F)S3(=O)=O)c1` (stereo not shown) [Compound 209, 3-((4-(difluoromethyl)-2,2-difluoro-3-hydroxy-1,1-dioxido-3-(trifluoromethyl)-2,3-dihydrobenzo[b]thiophen-5-yl)oxy)-5-fluorobenzonitrile], the IC50 [1] is reported as 4400 nM.

`N#Cc1cncc(Oc2ccc(S(=O)(=O)CF)c3c2[C@H](F)C(F)(F)[C@H]3O)c1` [Compound 109, 5-(((1S,3S)-2,2,3-trifluoro-7-((fluoromethyl)sulfonyl)-1-hydroxy-2,3-dihydro-1H-inden-4-yl)oxy)nicotinonitrile] gave an IC50 [1] of 2200 nM.

`Cc1cc(C#N)cc(Oc2ccc3c(c2C(F)F)C(=O)C(F)(F)S3(=O)=O)c1` [Compound 155, 3-((4-(Difluoromethyl)-2,2-difluoro-1,1-dioxido-3-oxo-2,3-dihydrobenzo[b]thiophen-5-yl)oxy)-5-methylbenzonitrile] was tested, and the IC50 [1] was 18700 nM.

Molecule `CS(=O)(=O)c1ccc(Oc2cncc(C#N)c2)c2c1[C@H](O)C(F)(F)[C@H]2F` [Compound 107, 5-(((1S,3S)-2,2,3-trifluoro-1-hydroxy-7-(methylsulfonyl)-2,3-dihydro-1H-inden-4-yl)oxy)nicotinonitrile] has an IC50 [1] of 23900 nM.
